≈ marks a conversion by molar mass, not a printed value. Calls of active or inactive are those of the source. The rule behind the calls is not given here.
How the values were obtained:
[1] = tested on: Staphylococcus aureus; experiment: Bactericidal activity against Staphylococcus aureus ATCC 29213 at 4 to 8 time MIC measured after 8 hrs by time-kill assay; format: functional, organism-based
[2] = Toxicity in female BALB/c mouse assessed as effect on spleen measured after 24 hrs by H and E staining based analysis; format: tissue-based; settings: in vivo
[3] = tested on: Staphylococcus aureus; experiment: Antibiofilm activity in Staphylococcus aureus ATCC 29213 assessed as disruption of preformed biofilm at 5 times MIC measured after 24 hrs by crystal violet staining based assay relative to control; format: functional
[4] = Drug distribution in female BALB/c mouse kidney measured after 24 hrs; format: ADME, tissue-based; settings: in vivo
[5] = tested on: Bacillus subtilis; experiment: Antibacterial activity against Bacillus subtilis IITKSM1 assessed as reduction in bacterial growth measured after 18 to 24 hrs by broth microdilution method; format: functional; settings: time 18-24 hrs
[6] = tested on: Staphylococcus aureus; experiment: Antibacterial activity against methicillin-resistant Staphylococcus aureus NRS 198 assessed as reduction in bacterial growth measured after 18 to 24 hrs by broth microdilution method; format: functional; settings: time 18-24 hrs
[7] = Hemolytic activity in human Red blood cell at 32 ug/ml measured after 1 hrs by spectrophotometric analysis relative to control; format: toxicity, cell-based, Erythrocyte; settings: red blood cells, at 32 µg/mL, read-out: Activity
[8] = tested on: Staphylococcus aureus; experiment: Antibacterial activity against methicillin-resistant Staphylococcus aureus NRS 129 assessed as reduction in bacterial growth measured after 18 to 24 hrs by broth microdilution method; format: functional; settings: time 18-24 hrs
[9] = tested on: Staphylococcus aureus; experiment: Antibiofilm activity in Staphylococcus aureus ATCC 29213 assessed as disruption of preformed biofilm at 10 times MIC measured after 24 hrs by crystal violet staining based assay relative to control; format: functional
[10] = tested on: Staphylococcus aureus; experiment: Antibiofilm activity in Staphylococcus aureus ATCC 29213 assessed as disruption of preformed biofilm at 40 times MIC measured after 24 hrs by crystal violet staining based assay relative to control; format: functional
[11] = Solubility of the compound in DMSO/DMF; format: physicochemical
[12] = tested on: Enterococcus faecalis; experiment: Antibacterial activity against Enterococcus faecalis ATCC 35550 assessed as reduction in bacterial growth measured after 18 to 24 hrs by broth microdilution method; format: functional; settings: time 18-24 hrs
[13] = tested on: Staphylococcus aureus; experiment: Antibacterial activity against vacomycin-resistant Staphylococcus aureus VRS 12 assessed as reduction in bacterial growth measured after 18 to 24 hrs by broth microdilution method; format: functional; settings: time 18-24 hrs
[14] = tested on: Staphylococcus aureus; experiment: Inhibition of biofilm in Staphylococcus aureus ATCC 29213 at 1 times MIC measured after 12 hrs by crystal violet staining based analysis relative to control; format: functional
[15] = Toxicity in female BALB/c mouse assessed as effect on body weight measured after 24 hrs; settings: in vivo
[16] = tested on: Staphylococcus aureus; experiment: Antibacterial activity against methicillin-resistant Staphylococcus aureus NRS 193 assessed as reduction in bacterial growth measured after 18 to 24 hrs by broth microdilution method; format: functional; settings: time 18-24 hrs
[17] = tested on: Staphylococcus aureus; experiment: Antibacterial activity against Staphylococcus aureus ATCC 29213 infected in female BALB/c mouse skin infection model assessed as reduction in skin lesions at 10 times MIC pre-infected with bacteria followed by compound addition and measured after 24 hrs; format: functional, organism-based
[18] = tested on: Staphylococcus aureus; experiment: Antibacterial activity against vacomycin-resistant Staphylococcus aureus VRS 4 assessed as reduction in bacterial growth measured after 18 to 24 hrs by broth microdilution method; format: functional; settings: time 18-24 hrs
[19] = tested on: Klebsiella pneumoniae; experiment: Antibacterial activity against Klebsiella pneumoniae BAA 1705 assessed as reduction in bacterial growth measured after 18 to 24 hrs by broth microdilution method; format: functional; settings: time 18-24 hrs
[20] = tested on: Staphylococcus aureus; experiment: Antibacterial activity against methicillin-resistant Staphylococcus aureus NRS 192 assessed as reduction in bacterial growth measured after 18 to 24 hrs by broth microdilution method; format: functional; settings: time 18-24 hrs
[21] = tested on: Staphylococcus aureus; experiment: Inhibition of biofilm in Staphylococcus aureus ATCC 29213 at 1 ug/ml measured after 12 hrs by crystal violet staining based analysis; format: functional, organism-based; settings: dose 1.0 µg/ml
[22] = tested on: Escherichia coli; experiment: Antibacterial activity against Escherichia coli ATCC 25922 assessed as reduction in bacterial growth measured after 18 to 24 hrs by broth microdilution method; format: functional; settings: time 18-24 hrs
[23] = tested on: Staphylococcus aureus; experiment: Antibacterial activity against vacomycin-resistant Staphylococcus aureus VRS 1 assessed as reduction in bacterial growth measured after 18 to 24 hrs by broth microdilution method; format: functional; settings: time 18-24 hrs
[24] = Drug distribution in female BALB/c mouse spleen measured after 24 hrs; format: ADME, tissue-based; settings: in vivo
[25] = Drug distribution in female BALB/c mouse lung measured after 24 hrs; format: ADME, tissue-based; settings: in vivo
[26] = tested on: Staphylococcus aureus; experiment: Antibacterial activity against Staphylococcus aureus ATCC 29213 infected in female BALB/c mouse skin infection model assessed as reduction of abscess in subcutaneous tissue at 10 times MIC pre-infected with bacteria followed by compound addition and measured after 24 hrs; format: functional, organism-based
[27] = tested on: Staphylococcus aureus; experiment: Antibiofilm activity in Staphylococcus aureus ATCC 29213 assessed as disruption of preformed biofilm at 1 times MIC measured after 24 hrs by crystal violet staining based assay relative to control; format: functional
[28] = tested on: Staphylococcus aureus; experiment: Antibacterial activity against methicillin-resistant Staphylococcus aureus NRS 100 assessed as reduction in bacterial growth measured after 18 to 24 hrs by broth microdilution method; format: functional; settings: time 18-24 hrs
[29] = tested on: Staphylococcus aureus; experiment: Antibacterial activity against Staphylococcus aureus ATCC 29213 infected in female BALB/c mouse skin infection model assessed as log reduction in bacterial load at 10 times MIC pre-infected with bacteria followed by compound addition and measured after 24 hrs; format: functional
[30] = tested on: Cell membrane; experiment: Disruption of cell membrane in Staphylococcus aureus ATCC 29213 assessed as increase in PI uptake at 10 times MIC measured after 8 mins by fluorescence based microplate reader analysis
[31] = tested on: Staphylococcus aureus; experiment: Inhibition of biofilm in Staphylococcus aureus ATCC 29213 at 0.5 times MIC measured after 12 hrs by crystal violet staining based analysis relative to control; format: functional
[32] = Toxicity in female BALB/c mouse assessed as effect on heart measured after 24 hrs by H and E staining based analysis; format: tissue-based; settings: in vivo
[33] = tested on: Staphylococcus aureus; experiment: Antibacterial activity against methicillin-resistant Staphylococcus aureus NRS 119 assessed as reduction in bacterial growth measured after 18 to 24 hrs by broth microdilution method; format: functional; settings: time 18-24 hrs
[34] = Solubility of the compound in distilled water; format: physicochemical; settings: buffer
[35] = tested on: Staphylococcus aureus; experiment: Bactericidal activity against Staphylococcus aureus ATCC 29213 at 4 to 8 time MIC measured within 60 mins by time-kill assay; format: functional, organism-based
[36] = tested on: Staphylococcus aureus; experiment: Antibacterial activity against Staphylococcus aureus ATCC 29213 infected in female BALB/c mouse skin infection model assessed as appearance of smooth dorsal skin at 10 times MIC pre-infected with bacteria followed by compound addition and measured after 24 hrs; format: functional, organism-based
[37] = tested on: Cell membrane; experiment: Induction of cytoplasmic membrane depolarization in Staphylococcus aureus ATCC 29213 assessed as fold increase in fluorescence intensity at 10 times MIC measured after 30 min by DiSC3-5 dye based fluorescence method; format: subcellular
[38] = tested on: Pseudomonas aeruginosa; experiment: Antibacterial activity against Pseudomonas aeruginosa ATCC 27853 assessed as reduction in bacterial growth measured after 18 to 24 hrs by broth microdilution method; format: functional; settings: time 18-24 hrs
[39] = tested on: Cell membrane; experiment: Disruption of cell membrane in Staphylococcus aureus ATCC 29213 assessed as increase in red fluorescence at 5 to 10 times MIC measured after 4 hrs by DAPI and PI staining based fluorescence microscopic analysis
[40] = tested on: Acinetobacter baumannii; experiment: Antibacterial activity against Acinetobacter baumannii BAA 1605 assessed as reduction in bacterial growth measured after 18 to 24 hrs by broth microdilution method; format: functional; settings: time 18-24 hrs

In the case of `O=C(O)c1cccc(C(=O)Nc2c(C(c3ccc(F)cc3)c3ccc(F)cc3)cc(Cl)cc2C(c2ccc(F)cc2)c2ccc(F)cc2)c1`, the Activity [1] is reported as “Active”, the Activity [2] is reported as “Non-toxic” and the Activity [3] is reported as 7.1%. The Drug uptake [4] was 4.02 nmol/mg, the MIC [5] was 1 µg/mL (≈ 1.47 µM) and the MIC [6] was 2 µg/mL (≈ 2.94 µM). For the same compound, the hemolysis at 1 h, 32 ug/ml [7] was 70%, the MIC [8] was 2 µg/mL (≈ 2.94 µM) and the Activity [9] was 11.84%. It also gave an Activity [10] of 31.47%, a solubility [11] of 570 mg/mL (≈ 838000 µM) and an MIC [12] of 1 µg/mL (≈ 1.47 µM). For the same compound, the MIC [13] was 2 µg/mL (≈ 2.94 µM), the “inhibition (INH)” value [14] was 91% and the Activity [15] was “Non-toxic”. The MIC [16] was 2 µg/mL (≈ 2.94 µM), the Activity [17] was “Active” and the MIC [18] was 2 µg/mL (≈ 2.94 µM). The MIC [19] was greater than 64 µg/mL, the MIC [20] was 2 µg/mL (≈ 2.94 µM) and the inhibition [21] was “Active”. The MIC [22] was greater than 64 µg/mL, the MIC [23] was 2 µg/mL (≈ 2.94 µM) and the Drug uptake [24] was 9.01 nmol/mg. For the same compound, the Drug uptake [25] was 9.91 nmol/mg, the Activity [26] was “Active” and the Activity [27] was 7.29%. For the same compound, the MIC [28] was 2 µg/mL (≈ 2.94 µM), the Activity [29] was 0.8 log10CFU/ml and the Activity [30] was “Active”. For the same compound, the “inhibition (INH)” value [31] was greater than 50%, the Activity [32] was “Non-toxic” and the MIC [33] was 2 µg/mL (≈ 2.94 µM). For the same compound, the solubility [34] was “Insoluble”, the Activity [35] was “Active” and the Activity [36] was “Active”. For the same compound, the fold change (FC) [37] was 4, the MIC [38] was greater than 64 µg/mL and the Activity [39] was “Active”. For the same compound, the MIC [40] was greater than 64 µg/mL.

— ChEMBL document CHEMBL6177993, “De Novo 3-(Phenylcarbamoyl) Benzoate Analogues: Efficacy against Multidrug-Resistant S. aureus and Elucidation of the Biodistribution Profile” (J Med Chem, 2025)
